Test results taken from article PMC9133015 (Nature Communications, 2022).
Several values for one entry are separate records, joined by “and”; a condition that tells them apart may be missing. Equal values may be shown once.

Legend:
[1] = tested on: PC-3 cells; assay: Anti-proliferation activity assay (CCK8, 72 h); format: cell-based, human; conditions: PC-3; for Relative proliferation rate (%) / optical density: replicates
[2] = tested on: DU145 cells; assay: Anti-proliferation activity assay (CCK8, 72 h); format: cell-based, human; conditions: DU145; for Relative proliferation rate (%) / optical density: replicates
[3] = tested on: 22Rv1 cells; assay: Invasion assay (transwell); format: cell-based, human; conditions: 22Rv1, 0.5 μM, replicates
[4] = tested on: PC-3 cells; assay: Cell cycle assay (PI flow cytometry); format: cell-based, human; conditions: PC-3, 2 µM, replicates
[5] = tested on: 22Rv1 cells; assay: Cell cycle assay (PI flow cytometry); format: cell-based, human; conditions: 22Rv1, 0.5 μM, replicates
[6] = tested on: DU145 cells; assay: Cell cycle assay (PI flow cytometry); format: cell-based, human; conditions: DU145, 2 μM, replicates
[7] = tested on: PC-3 cells; assay: Invasion assay (transwell); format: cell-based, human; conditions: PC-3; 2 µM; replicates
[8] = tested on: DU145 cells; assay: Invasion assay (transwell); format: cell-based, human; conditions: DU145, 2 μM, replicates
[9] = tested on: DU145 xenograft; assay: In vivo antitumor activity, DU145 xenograft mouse model; design: species or system BALB/c nude mice; conditions: for Body weight (Fig. 7b) / Tumor volume (Fig. 7a): individual mice 1-10
[10] = tested on: 22Rv1 cells; assay: Colony formation assay; format: cell-based, human; conditions: 22Rv1, 0.5 μM, replicates
[11] = tested on: DU145 cells; assay: Colony formation assay; format: cell-based, human; conditions: DU145, 2 μM, replicates
[12] = tested on: DU145 xenograft; assay: H&E and Ki67 staining of xenograft tumor tissues; format: in vivo, BALB/c nude mice; conditions: DU145, reference drug groups, replicates
[13] = tested on: 22Rv1 cells; assay: Anti-proliferation activity assay (CCK8, 72 h); format: cell-based, human; conditions: 22Rv1; for Relative proliferation rate (%) / optical density: replicates

CC(=O)c1c(C)c2cnc(Nc3ccc(N4CCNCC4)cn3)nc2n(C2CCCC2)c1=O [palbociclib]
Relative proliferation rate (%) mean ([1]; 0.078 uM): 8.515% | Relative proliferation rate (%) ([1]; 0.078 uM): 4.665% and 8.515% and 12.3646% | optical density ([1]; 0.078 uM): 0.981 and 0.967 and 0.971 | Relative proliferation rate (%) mean ([1]; 0.3125 uM): 12.5396% | Relative proliferation rate (%) ([1]; 0.3125 uM): 9.427% and 12.4882% and 15.704% | optical density ([1]; 0.3125 uM): 0.932 and 0.925 and 0.934 | Relative proliferation rate (%) mean ([1]; 1.25 uM): 26.3574% | Relative proliferation rate (%) ([1]; 1.25 uM): 21.0884% and 26.3955% and 31.5884% | optical density ([1]; 1.25 uM): 0.812 and 0.778 and 0.758 | Relative proliferation rate (%) mean ([1]; 5 uM): 54.2128% | Relative proliferation rate (%) ([1]; 5 uM): 49.8542% and 54.21% and 58.574% | optical density ([1]; 5 uM): 0.516 and 0.484 and 0.459 | Relative proliferation rate (%) mean ([1]; 20 uM): 74.7111% | Relative proliferation rate (%) ([1]; 20 uM): 68.7075% and 74.7398% and 80.6859% | optical density ([1]; 20 uM): 0.322 and 0.267 and 0.214 | Relative proliferation rate (%) mean ([1]; 80 uM): 84.0905% | Relative proliferation rate (%) ([1]; 80 uM): 77.7454% and 83.8221% and 90.704% | optical density ([1]; 80 uM): 0.229 and 0.171 and 0.103 | Relative proliferation rate (%) mean ([2]; 0.0049 uM): 4.824% | Relative proliferation rate (%) ([2]; 0.0049 uM): 3.385% and 4.869% and 6.219% | optical density ([2]; 0.0049 uM): 0.999 and 1.016 and 0.95 | Relative proliferation rate (%) mean ([2]; 0.078 uM): 19.5052% | Relative proliferation rate (%) ([2]; 0.078 uM): 16.5377% and 19.5693% and 22.4087% | optical density ([2]; 0.078 uM): 0.863 and 0.859 and 0.786 | Relative proliferation rate (%) mean ([2]; 0.3125 uM): 28.7249% | Relative proliferation rate (%) ([2]; 0.3125 uM): 24.9516% and 28.7453% and 32.4778% | optical density ([2]; 0.3125 uM): 0.776 and 0.761 and 0.684 | Relative proliferation rate (%) mean ([2]; 1.25 uM): 33.0518% | Relative proliferation rate (%) ([2]; 1.25 uM): 30.3675% and 33.0524% and 35.7354% | optical density ([2]; 1.25 uM): 0.720 and 0.715 and 0.651 | Relative proliferation rate (%) mean ([2]; 5 uM): 54.1864% | Relative proliferation rate (%) ([2]; 5 uM): 49.8066% and 54.2135% and 58.539% | optical density ([2]; 5 uM): 0.519 and 0.489 and 0.420 | Relative proliferation rate (%) mean ([2]; 20 uM): 62.4741% | Relative proliferation rate (%) ([2]; 20 uM): 57.4468% and 62.4532% and 67.5222% | optical density ([2]; 20 uM): 0.440 and 0.401 and 0.329 | Relative proliferation rate (%) mean ([2]; 80 uM): 75.0057% | Relative proliferation rate (%) ([2]; 80 uM): 68.472% and 74.9064% and 81.6387% | optical density ([2]; 80 uM): 0.326 and 0.268 and 0.186 | Cell invasion (cell number) [3]: 531 cell number and 470 cell number and 513 cell number | Cell cycle percentages ( % ) G0/G1 ([4]; G0/G1): 84.02% and 87.57% and 88.06% | Cell cycle percentages ( % ) G2/M ([4]; G2/M): 10.01% and 8.39% and 8.02% | Cell cycle percentages ( % ) S ([4]; S): 5.97% and 4.04% and 3.92% | Cell cycle percentages ( % ) G0/G1 [5]: 79.03% and 81.73% and 83.36% | Cell cycle percentages ( % ) G2/M [5]: 9.98% and 8.76% and 8.18% | Cell cycle percentages ( % ) S [5]: 10.99% and 9.51% and 8.46% | Cell cycle percentages ( % ) G0/G1 [6]: 59.02% and 61.19% and 64.25% | Cell cycle percentages ( % ) G2/M [6]: 23.03% and 20.58% and 18.04% | Cell cycle percentages ( % ) S [6]: 17.95% and 18.23% and 19.71% | Cell invasion (cell number) [7]: 1678 cell number and 1789 cell number and 1654 cell number | Cell invasion (cell number) [8]: 1998 cell number and 2045 cell number and 2102 cell number | antitumor activity (in words) ([9]; DU145 xenograft, 100 mg/kg orally once a day, seven weeks): only delayed the tumor growth | Body weight (Fig. 7b) ([9]; Day 1): 20.6 and 19.7 and 20.3 (2×) and 19.6 and 19.8 and 20.4 and 20.1 and 21.5 and 21.1 | Tumor volume (Fig. 7a) ([9]; Day 1, in cm³ (unit assumed)): 0.06799 and 0.07327 and 0.07849 and 0.09349 and 0.07486 and 0.07173 and 0.06955 and 0.08095 and 0.1033 and 0.07176 | Body weight (Fig. 7b) ([9]; Day 3): 20.9 and 20.1 and 20.5 and 19.9 and 20.3 and 20.7 (2×) and 20.4 and 21.5 (2×) | Tumor volume (Fig. 7a) ([9]; Day 3): 0.109 (2×) and 0.1112 and 0.1321 and 0.1287 and 0.1049 and 0.09325 and 0.1073 and 0.1517 and 0.1054 | Body weight (Fig. 7b) ([9]; Day 5): 21.2 and 20.4 and 20.7 (2×) and 20.2 and 20.5 and 20.8 and 21.6 and 21.8 and 20.9 | Tumor volume (Fig. 7a) ([9]; Day 5, in cm³ (unit assumed)): 0.1433 and 0.1864 and 0.1614 and 0.176 and 0.1543 and 0.1645 and 0.1193 and 0.1528 and 0.2268 and 0.2014 | Tumor volume (Fig. 7a) ([9]; Day 7, in cm³ (unit assumed)): 0.1784 and 0.235 and 0.2414 and 0.2692 and 0.217 and 0.2962 and 0.1705 and 0.2421 and 0.3416 and 0.2763 | Body weight (Fig. 7b) ([9]; Day 7, in g (unit assumed)): 21.5 and 20.6 and 21 and 20.5 and 20.7 and 21.1 and 20.9 and 21.9 and 22.1 and 21.2 | Body weight (Fig. 7b) ([9]; Day 9): 21.7 and 21 and 21.5 (2×) and 20.9 and 21.3 (2×) and 21.2 and 22.3 and 22.5 | Tumor volume (Fig. 7a) ([9]; Day 9, in cm³ (unit assumed)): 0.239 and 0.3072 and 0.3051 and 0.3239 and 0.2873 and 0.3055 and 0.2456 and 0.3235 and 0.4654 and 0.3489 | Body weight (Fig. 7b) ([9]; Day 11): 22.1 and 21.4 and 21.9 and 21.2 and 21.6 and 21.7 and 21.5 (2×) and 22.6 and 22.9 | Tumor volume (Fig. 7a) ([9]; Day 11, in cm³ (unit assumed)): 0.3066 and 0.4081 and 0.3897 and 0.4352 and 0.3512 and 0.3909 and 0.2984 and 0.4401 and 0.56 and 0.4357 | Tumor volume (Fig. 7a) ([9]; Day 13, in cm³ (unit assumed)): 0.3785 and 0.467 and 0.4591 and 0.5566 and 0.4456 and 0.4658 and 0.368 and 0.5218 and 0.6407 and 0.5062 | Body weight (Fig. 7b) ([9]; Day 13, in g (unit assumed)): 22.5 and 21.7 and 22.2 and 21.4 and 21.9 and 22.1 and 21.6 and 23.1 and 23.2 and 21.8 | Body weight (Fig. 7b) ([9]; Day 15): 22.9 and 22 and 22.4 and 21.6 and 22.1 (2×) and 22.5 and 21.7 and 23.3 and 23.5 | Tumor volume (Fig. 7a) ([9]; Day 15, in cm³ (unit assumed)): 0.4581 and 0.5316 and 0.5555 and 0.6598 and 0.5071 and 0.5543 and 0.4465 and 0.6242 and 0.7718 and 0.6156 | Body weight (Fig. 7b) ([9]; Day 17): 23.1 (2×) and 22.2 and 22.7 (2×) and 21.9 and 22.4 and 21.6 and 23.7 and 22.3 | Tumor volume (Fig. 7a) ([9]; Day 17, in cm³ (unit assumed)): 0.5062 and 0.5921 and 0.6502 and 0.7599 and 0.6087 and 0.6352 and 0.4918 and 0.6837 and 0.8676 and 0.6822 | Body weight (Fig. 7b) ([9]; Day 19): 23.4 (2×) and 22.5 and 23.1 (2×) and 22.3 and 22.8 and 21.9 and 23.9 and 22.6 | Tumor volume (Fig. 7a) ([9]; Day 19, in cm³ (unit assumed)): 0.5936 and 0.6347 and 0.7034 and 0.8268 and 0.6585 and 0.679 and 0.5363 and 0.7534 and 0.9195 and 0.6727 | Tumor weight (Fig. 7c) ([9]; reference drug groups, individual mice, in g (unit assumed)): 1.87 and 2.14 and 1.86 and 2.29 and 1.85 and 1.63 and 1.81 and 1.69 and 1.58 | Colony formation (cell number) [10]: 250 cell number and 274 cell number and 246 cell number | Colony formation (cell number) [11]: 150 cell number and 158 cell number and 148 cell number | Positive rate ( % ) (Fig. 7f) [12]: 31.83% and 31.88% and 31.79% | Relative proliferation rate (%) mean ([13]; 0.0049 uM): 10.7151% | Relative proliferation rate (%) ([13]; 0.0049 uM): 10.6906% and 8.054% and 13.4011% | optical density ([13]; 0.0049 uM): 0.944 and 0.959 and 0.937 | Relative proliferation rate (%) mean ([13]; 0.078 uM): 28.5598% | Relative proliferation rate (%) ([13]; 0.078 uM): 28.5714% and 25.4075% and 31.7006% | optical density ([13]; 0.078 uM): 0.755 and 0.778 and 0.739 | Relative proliferation rate (%) mean ([13]; 0.3125 uM): 42.3403% | Relative proliferation rate (%) ([13]; 0.3125 uM): 42.3841% and 37.8715% and 46.7652% | optical density ([13]; 0.3125 uM): 0.609 and 0.648 and 0.576 | Relative proliferation rate (%) mean ([13]; 1.25 uM): 63.5644% | Relative proliferation rate (%) ([13]; 1.25 uM): 63.5762% and 60.0192% and 67.098% | optical density ([13]; 1.25 uM): 0.385 and 0.417 and 0.356 | Relative proliferation rate (%) mean ([13]; 5 uM): 73.8099% | Relative proliferation rate (%) ([13]; 5 uM): 73.6991% and 70.3739% and 77.3567% | optical density ([13]; 5 uM): 0.278 and 0.309 and 0.245 | Relative proliferation rate (%) mean ([13]; 20 uM): 83.6751% | Relative proliferation rate (%) ([13]; 20 uM): 83.6329% and 79.9616% and 87.4307% | optical density ([13]; 20 uM): 0.173 and 0.209 and 0.136 | Relative proliferation rate (%) mean ([13]; 80 uM): 92.6404% | Relative proliferation rate (%) ([13]; 80 uM): 92.6206% and 87.0566% and 98.244% | optical density ([13]; 80 uM): 0.078 and 0.135 and 0.019
